Measurements taken from article PMC12140386, “Diallyl Trisulfide From Garlic Regulates RAB18 Phase Separation to Inhibit Lipophagy and Induce Cuproptosis in Hepatic Stellate Cells for Antifibrotic Effects” (Advanced Science, 2025).

What was measured:
[1] = target: T1, purified RAB18 protein (GFP‐RAB18) (Homo sapiens, UniProt Q9NP72); assay: FRAP of RAB18 droplets (also AFM); assay type: binding; conditions: 10 µM DATs; 50 µM protein; 50 mM HEPES pH 7.4, 150 mM NaCl; no added CaCl2
T1 construct: GFP-fusion RAB18, expressed in E. coli BL21 (DE3), Ni-NTA purified
T1 sequence (Q9NP72 whole entry, the tested form may be a part): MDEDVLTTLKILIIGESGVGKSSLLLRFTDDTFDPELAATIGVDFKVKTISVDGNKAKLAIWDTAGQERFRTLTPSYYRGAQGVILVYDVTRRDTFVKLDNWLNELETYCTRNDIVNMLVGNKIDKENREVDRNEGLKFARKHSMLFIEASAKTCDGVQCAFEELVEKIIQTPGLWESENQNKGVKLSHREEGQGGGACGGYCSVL

[2] = target: T2, RAB18 protein in LX2 cells (Homo sapiens, UniProt Q9NP72); assay: cellular thermal shift assay; assay type: cell-based; conditions: 10 µM DATs, 24 h
T2 construct: endogenous RAB18 in human hepatic stellate cell line LX2 (CETSA)
T2 sequence (Q9NP72 1-203): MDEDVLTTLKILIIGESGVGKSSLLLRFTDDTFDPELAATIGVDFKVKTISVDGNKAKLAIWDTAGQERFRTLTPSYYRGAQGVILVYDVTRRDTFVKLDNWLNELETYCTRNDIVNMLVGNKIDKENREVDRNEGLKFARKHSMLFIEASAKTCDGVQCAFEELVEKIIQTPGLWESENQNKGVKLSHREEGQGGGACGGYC

FRAP recovery percentage [1]: ~ ≈80%
Compound: C=CCSSSCC=C [DATs, Diallyl trisulfides]
CETSA [2]: DATs exhibit a strong affinity for RAB18, effectively binding to and stabilizing the conformation of RAB18
